According to patent publication US20240083857A1, “2-Methyl-Quinazolines” (Bayer Pharma Aktiengesellschaft, priority 2017, published 2024):

Experiments:
[1] = molecular target: K-Ras^G12C : hSOS1 interaction (Homo sapiens, UniProt Q07889); experiment: Biochemical assay 1: K-Ras^G12C interaction assay with hSOS1 (HTRF); type: binding; details: read-out: Assay 1 (KRAS-SOS Interaction) activity expressed as IC50
Procedure: Biochemical assay 1: K-Ras^G12C Interaction Assay with hSOS1
This assay quantifies the equilibrium interaction of human SOS1 with K-Ras^Gl2C. Detection of the interaction is achieved by measuring homogenous time-resolved fluorescence resonance energy transfer (HTRF) from antiGST-Europium (FRET donor) bound to GST-K-Ras^G12C to anti-6His-XL665 bound to His-tagged hSOS1 (FRET-acceptor).
The assay buffer contained 5 mM HEPES pH 7.4 (Applichem), 150 mM NaCl (Sigma), 10 mM EDTA (Promega), 1 mM DTT (Thermofisher), 0.05% BSA Fraction V, pH 7.0, (ICN Biomedicals), 0.0025% (v/v) Igepal (Sigma) and 100 mM KF (FLUKA).
Concentrations of protein batches used were optimized to be within the linear range of the HTRF signal. A Ras working solution was prepared in assay buffer containing typically 10 nM GST-hK-RasG12C and 2 nM antiGST-Eu(K) (Cisbio, France). A SOS working solution was prepared in assay buffer containing typically 20 nM His-hSOS1 and 10 nM anti-6His-XL665 (Cisbio, France). An inhibitor control solution was prepared in assay buffer containing 10 nM anti-6His-XL665 without hSOS1.
(§1) Fifty nl of a 100-fold concentrated solution of the test compound in DMSO were transferred into a black microtiter test plate (384 or 1536, Greiner Bio-One, Germany). For this, either a Hummingbird liquid handler (Digilab, MA, USA) or an Echo acoustic system (Labcyte, CA, USA) was used.
(§2) All steps of the assay were performed at 20° C. A volume of 2.5 μl of the Ras working solution was added to all wells of the test plate using a Multidrop dispenser (Thermo Labsystems). After 2 min preincubation, 2.5 μl of the SOS working solution were added to all wells except for those wells at the side of the test plate that were subsequently filled with 2.5 μl of the inhibitor control solution. After 60 min incubation the fluorescence was measured with a Pherastar (BMG, Germany) using the HTRF module (excitation 337 nm, emission 1: 620 nm, emission 2: 665 nm).
(§3) IC50 values were calculated by 4-Parameter fitting using a commercial software package (Genedata Screener, Switzerland).

[2] = molecular target: human SOS1 (nucleotide exchange of K-Ras^G12C) (Homo sapiens, UniProt Q07889); experiment: Biochemical assay 2: K-Ras^G12C activation assay by hSOS1 at high GTP concentration (HTRF); details: high GTP; read-out: Assay 2 (KRAS-Activation by SOS high GTP) activity expressed as IC50
Source text: Biochemical Assay 2: K-Ras^G12C Activation Assay by hSOS1 at High GTP Concentration
This assay quantifies human SOS1-mediated nucleotide exchange of K-Ras^G12C preloaded with a fluorescent […] and in presence of an excess of free GTP. Loaded hK-Ras^G12C generates a high HTRF-signal by energy transfer from antiGST-Terbium (FRET donor) bound to K-Ras to the loaded fluorescent GDP analog (FRET-acceptor). SOS1 activity exchanges the fluorescent GDP for non-fluorescent GTP and therefore leads to a reduction of the HTRF signal.
The fluorescent GDP-analog EDA-GDP-Dy647P1 (2′/3′-O-(2-Aminoethyl-carbamoyl)-guanosine-5′-diphosphate labelled with Dy647P1 (Dyomics GmbH, Germany)) was synthesized by Jena Biosciences GmbH (Germany) and supplied as a 1 mM aqueous solution.
Concentrations of protein batches used were optimized to be within the linear range of the HTRF signal.
Preparation of GST-tagged hK-Ras^Gl2C loaded with fluorescent nucleotide was performed as follows: incubation of 11.5 μM hK-Ras^Gl2C with 5-fold excess GDP-Dy647 nucleotide (54 μM) in 500 μl NLS-buffer (RAS activation Kit Jena Bioscience, Kat. #PR-950) for 10 min at 37° C. Addition of 20 μl 1 M MgCl2 (Sigma) to final 40 mM and store on ice. Purification into buffer (10 mM HEPES pH 7.4 (Applichem), 150 mM NaCl (Sigma), 5 mM MgCl2 (Sigma)) by use of a PD-Minitrap desalting column (GE Healthcare). Concentration of 1 ml purified hK-Ras-GDP-Dy647 is approx. 4-5 μM.
(§4) The assay buffer contained 10 mM HEPES pH 7.4 (Applichem), 150 mM NaCl (Sigma), 5 mM MgCl2 (Sigma), 1 mM DTT (Thermofisher), 0.05% BSA Fraction V, pH 7.0, (ICN Biomedicals), 0.0025% (v/v) Igepal (Sigma).
A Ras working solution was prepared in assay buffer containing typically 80 nM loaded GST-hK-RasG12C-EDA-GDP-Dy647P1 and 2 nM antiGST-Tb (Cisbio, France). A hSOS1 working solution was prepared in assay buffer containing typically 8 nM His-hSOS1 and 100 μM GTP (Jena Bioscience, Germany). An inhibitor control solution was prepared in assay buffer containing the same concentration of […].
as §1
as §2, with “hSOS1” for “SOS”, “20” for “60”
as §3

[3] = molecular target: human SOS1 (loading of human K-Ras^G12C-GDP with fluorescent GTP-analog) (Homo sapiens, UniProt Q07889); experiment: Biochemical assay 3: K-Ras^G12C activation assay by hSOS1 (HTRF); details: no GTP; read-out: Assay 3 (KRAS-Activation by SOS no GTP) activity expressed as IC50
Source text: Biochemical assay 3: K-Ras^G12C Activation Assay by hSOS1
K-Ras is a small GTPase that can bind GDP and GTP. The guanine nucleotide exchange factor SOS catalyzes the activation of K-Ras by promoting the exchange of GDP to GTP. SOS binds to K-Ras-GDP thereby opening the GDP-binding pocket to facilitate GDP release. Rebinding of excess nucleotide leads to dissociation of the K-Ras-SOS intermediate complex leaving K-Ras loaded with the nucleotide.
This assay quantifies human SOS1-mediated loading of human K-Ras^G12C-GDP with a fluorescent GTP-analog. Detection of successful loading is achieved by measuring homogenous time-resolved fluorescence resonance energy transfer (HTRF) from antiGST-Terbium (FRET donor) bound to GST-K-RasG12C to the loaded fluorescent GTP analog (FRET-acceptor).
The fluorescent GTP-analog EDA-GTP-Dy647P1 (2′/3′-O-(2-Aminoethyl-carbamoyl)-guanosine-5′-triphosphate labelled with Dy647P1 (Dyomics GmbH, Germany)) was synthesized by Jena Biosciences GmbH (Germany) and supplied as a 1 mM aqueous solution.
as §4
Concentrations of protein batches used were optimized to be within the linear range of the HTRF signal. A Ras working solution was prepared in assay buffer containing typically 100 nM GST-hK-RasG12C and 2 nM antiGST-Tb (Cisbio, France). A hSOS1 working solution was prepared in assay buffer containing typically 20 nM hSOS1 and 200 nM EDA-GTP-Dy647P1. An inhibitor control solution was prepared in assay buffer containing 200 nM EDA-GTP-Dy647P1 without hSOS1.
as §1
as §2, with “After 10” for “After 2”, “the hSOS1” for “the SOS”, “After 30” for “After 60”
as §3

| SMILES | IC50 [1] | IC50 [2] | IC50 [3] |
| --- | --- | --- | --- |
| COc1cc2nc(C)nc(N[C@@H](C)c3ccc(-c4cncnc4)s3)c2cc1OC (racemic) [Example 42, 6,7-dimethoxy-2-methyl-N-{1-[5-(pyrimidin-5-yl)thiophen-2-yl]ethyl}quinazolin-4-amine] | 4.27 µM | 5.58 µM |  |
| COc1cc2nc(C)nc(N[C@@H](C)c3ccc(-c4cccc5cnccc45)s3)c2cc1OC (racemic) [Example 45, N-{1-[5-(isoquinolin-5-yl)thiophen-2-yl]ethyl}-6,7-dimethoxy-2-methylquinazolin-4-amine] | 1.51 µM | 2.17 µM | 1.1 µM |
| COc1cc2nc(C)nc(N[C@@H](C)c3ccc(-c4cncc(C)c4)s3)c2cc1OC (racemic) [Example 46, 6,7-dimethoxy-2-methyl-N-{1-[5-(5-methylpyridin-3-yl)thiophen-2-yl]ethyl}quinazolin-4-amine] | 2.37 µM | 3.82 µM | 4.1 µM |
| COCc1ccccc1-c1ccc([C@H](C)Nc2nc(C)nc3cc(OC)c(OC)cc23)s1 (racemic) [Example 50, 6,7-dimethoxy-N-[1-{5-[2-(methoxymethyl)phenyl]thiophen-2-yl}ethyl]-2-methylquinazolin-4-amine] | 9.85 µM | 20 µM |  |
| COc1cc2nc(C)nc(N[C@@H](C)c3ccc(-c4cccc(C(=O)N(C)C)c4)s3)c2cc1OC (racemic) [Example 51, 3-(5-{1-[(6,7-dimethoxy-2-methylquinazolin-4-yl)amino]ethyl}thiophen-2-yl)-N,N-dimethylbenzamide] | 5.63 µM | 5.9 µM |  |
| COc1cc2nc(C)nc(N[C@@H](C)c3ccc(-c4ccc(CO)s4)s3)c2cc1OC (racemic) [Example 52, (5′-{1-[(6,7-dimethoxy-2-methylquinazolin-4-yl)amino]ethyl}-2,2′-bithiophen-5-yl)methanol] | 4.29 µM | 5.46 µM |  |
| COc1cc2nc(C)nc(N[C@@H](C)c3ccc(-c4ccc(-c5nnc(C)o5)cc4)s3)c2cc1OC (racemic) [Example 128, 6,7-dimethoxy-2-methyl-N-[1-{5-[4-(5-methyl-1,3,4-oxadiazol-2-yl)phenyl]thiophen-2-yl}ethyl]quinazolin-4-amine] | 13.9 µM | 16.9 µM |  |
| COc1cc2nc(C)nc(N[C@@H](C)c3ccc(-c4ccc(CNC(C)=O)cc4)s3)c2cc1OC (racemic) [Example 138, N-[4-(5-{1-[(6,7-dimethoxy-2-methylquinazolin-4-yl)amino]ethyl}thiophen-2-yl)benzyl)acetamide] | 5.57 µM | 7.43 µM |  |
| COc1cc2nc(C)nc(N[C@@H](C)c3ccc(-c4cccc(CNS(C)(=O)=O)c4)s3)c2cc1OC (racemic) [Example 139, N-[3-(5-{1-[(6,7-dimethoxy-2-methylquinazolin-4-yl)amino]ethyl}thiophen-2-yl)benzyl]methanesulfonamide] | 4.7 µM | 6.13 µM |  |
| COc1cc2nc(C)nc(N[C@@H](C)c3ccc(-c4ccc(CNS(C)(=O)=O)cc4)s3)c2cc1OC (racemic) [Example 140, N-[4-(5-{1-[(6,7-dimethoxy-2-methylquinazolin-4-yl)amino]ethyl}thiophen-2-yl)benzyl]methanesulfonamide] | 5.33 µM | 5.26 µM |  |
| COc1cc2nc(C)nc(N[C@@H](C)c3ccc(-c4ccc(S(C)(=O)=O)cc4)s3)c2cc1OC (racemic) [Example 149, 6,7-dimethoxy-2-methyl-N-[1-{5-[4-(methylsulfonyl)phenyl]thiophen-2-yl}ethyl]quinazolin-4-amine] | 2.36 µM | 4.3 µM |  |
| COc1cc2nc(C)nc(N[C@@H](C)c3ccc(-c4cccc(NS(C)(=O)=O)c4)s3)c2cc1OC (racemic) [Example 165, N-[3-(5-{1-[(6,7-dimethoxy-2-methylquinazolin-4-yl)amino]ethyl}thiophen-2-yl)phenyl]methanesulfonamide] | 10.6 µM | 16.4 µM |  |
| COc1cc2nc(C)nc(N[C@@H](C)c3ccc(-c4cccc(S(C)(=O)=O)c4)s3)c2cc1OC (racemic) [Example 173, 6,7-dimethoxy-2-methyl-N-[1-{5-[3-(methylsulfonyl)phenyl]thiophen-2-yl}ethyl]quinazolin-4-amine] | 6.88 µM | 8.05 µM |  |
| COc1cc2nc(C)nc(N[C@@H](C)c3ccc(-c4ccc(C(=O)N(C)C)cc4)s3)c2cc1OC (racemic) [Example 176, 4-(5-{1-[(6,7-dimethoxy-2-methylquinazolin-4-yl)amino]ethyl}thiophen-2-yl)-N,N-dimethylbenzamide] | 3.49 µM | 5.82 µM |  |
